Source: patent US20260085073A1, “PYRAZOLYLCARBOXAMIDE COMPOUNDS AND THEIR USE IN THERAPY” (Hotspot Therapeutics, Inc., priority 2022, published 2026)

Each compound was assayed against T1, MALT1 (Homo sapiens, UniProt Q9UDY8) (assay: MALT1 inhibition assay (MALT-1 Fluorogenic Peptide Cleavage Assay, Ac-LRSR-AMC substrate)). Conditions: Avi-tagged FL MALT-1, 30 min pre-incubation, 90 min reaction at room temperature, fluorescence intensity.
T1 construct: Avi-tagged FL MALT-1 (Pharmaron, stored at −70° C.); Avi-tag
T1 sequence (Q9UDY8 1-824): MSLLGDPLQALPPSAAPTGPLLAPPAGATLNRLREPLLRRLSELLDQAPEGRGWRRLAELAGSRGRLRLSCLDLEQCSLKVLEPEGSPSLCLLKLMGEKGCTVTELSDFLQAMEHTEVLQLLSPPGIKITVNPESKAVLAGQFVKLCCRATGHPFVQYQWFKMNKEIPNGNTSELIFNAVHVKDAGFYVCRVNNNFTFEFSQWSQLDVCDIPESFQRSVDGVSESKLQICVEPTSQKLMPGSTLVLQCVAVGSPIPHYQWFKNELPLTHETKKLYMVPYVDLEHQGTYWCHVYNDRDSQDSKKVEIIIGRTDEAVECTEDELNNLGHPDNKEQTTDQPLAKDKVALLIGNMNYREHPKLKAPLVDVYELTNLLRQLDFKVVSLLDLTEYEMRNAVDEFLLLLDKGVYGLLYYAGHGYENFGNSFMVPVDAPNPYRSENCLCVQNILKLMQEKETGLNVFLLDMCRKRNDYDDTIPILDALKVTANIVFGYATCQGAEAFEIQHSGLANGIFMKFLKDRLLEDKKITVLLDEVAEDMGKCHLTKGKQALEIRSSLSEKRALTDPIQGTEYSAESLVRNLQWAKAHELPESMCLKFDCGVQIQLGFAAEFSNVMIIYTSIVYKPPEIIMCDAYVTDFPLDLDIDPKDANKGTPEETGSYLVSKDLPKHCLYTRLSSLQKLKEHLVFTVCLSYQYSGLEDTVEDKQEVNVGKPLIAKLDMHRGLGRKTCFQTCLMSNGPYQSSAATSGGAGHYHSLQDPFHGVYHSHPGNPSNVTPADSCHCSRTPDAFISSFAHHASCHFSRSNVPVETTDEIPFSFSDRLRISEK
Assay type: biochemical
Description: Example 71—MALT1 Inhibition Assay
Compounds were tested for ability to bind to MALT1.
Inhibition of MALT1 activity by the presence of small molecules was evaluated using MALT-1 Fluorogenic Peptide Cleavage Assay. The assay utilizes a quenched AMC-labelled peptide that contains the MALT-1 recognition sequence and cleavage site (LRSR). MALT-1 mediated cleavage of the peptide relieves the quenching and leads to an increase in fluorescence at excitation (342 nm) and emission (441 nm).
The following reagents were obtained commercially and used to prepare standard reagent formulations as further described below: N-2-hydroxyethylpiperazine-N-2-ethane sulfonic acid (HEPES) (1 M, pH 7.5, stored at 4° C.), sodium citrate (stored at RT), tris(2-carboxyethyl) phosphine hydrochloride (T-CEP) (500 mM, stored at −20° C.), ethylenediaminetetraacetic acid (EDTA) (500 mM, stored at RT), dimethylsulfoxide (DMSO, stored at RT), 3-[(3-cholamidopropyl)dimethylammonio]-1-propane sulphate (CHAPS) (stored at RT), dimethylsulfoxide (DMSO), DMSO (Fisher Scientific, stored at RT), Avi-tagged FL MALT-1 (Pharmaron, stored at −70° C.), Ac-LRSR-AMC Peptide (SM Biochemicals, stored at −20° C.), and ultrapure water (MILLI-QR).
The standard reagent formulations used in this assay were prepared and stored as follows. A 1.1 M solution of sodium citrate (161.3 g, 500 mL) was prepared and stored at room temperature. A 10% (w/v) CHAPS solution (2.0 g, 20 mL) was prepared and stored at 4° C. A 500 mM HEPES solution having pH of 6.89 was prepared from 200 mL of a 1 M HEPES solution having a pH of 7.5 using concentrated hydrochloric acid and brought to a final volume of 400 mL with MILLI-QR H2O. The substrate, 10 mM Ac-LRSR-AMC Peptide, was prepared (10 mg, 1.370 mL DMSO) and stored at −20° C.
Compounds were plated to provide a 2% DMSO final concentration using a ProxiPlate-384 Plus F Black 384-shallow well microplate. The assay-ready plates were equilibrated to room temperature. A reaction buffer (30 mL total volume) was prepared by combining HEPES (pH 6.89, 25 mM, 1.5 mL), sodium citrate (660 mM, 18.0 mL), T-CEP (1 mM, 0.06 mL), EDTA ([…], 0.06 mL), CHAPS (0.05%, 0.15 mL), DMSO (2%, 0.6 mL), and MILLI-QR H2O (10.23 mL; 9.63 mL when backfilled to 2% DMSO) followed by thorough mixing. DMSO was added only when compound plates had not been DMSO-backfilled to 2%.
MALT-1 was thawed and kept on ice. Peptide substrate was thawed on the bench under ambient conditions. A MALT-1 enzyme working stock was prepared from Avi-tagged FL MALT-1 (40 nM in a prepared reagent volume of 16.5 μL) and the reaction buffer (13.0 mL). MALT1 working stock (5 μL) was added to each well of the microplate. MALT-1 was pre-incubated with compounds for 30 minutes at room temperature.
Two substrate working stocks (Km and 10×Km) were prepared. The 1×Km substrate was prepared from Ac-LRSR-AMC Peptide (50 μM in a prepared reagent volume of 35.0 μL) and the reaction buffer (6.965 mL). The 10×Km substrate was prepared from Ac-LRSR-AMC Peptide (280 μM in a prepared reagent volume of 196.0 μL) and the reaction buffer (6.804 mL). The reaction was initiated by the addition of substrate working stock (5 μL, 50 μM) to Km plates and the addition of substrate working stock (5 μL 280 μM) to 10×Km plates. The plates were covered and incubated on the bench at room temperature for 90 minutes.
Fluorescence intensity was determined using a CLARIOstar microplate reader (BMG LABTECH) using the optimised AMC mode. Before taking readings, a 70% gain was applied on the neutral control well. Compound data were normalised to % Inhibition and used to plot sigmoidal concentration response curves to yield various parameters including IC50.

| IC50 [nM] | Structure (SMILES) |
| --- | --- |
| < 500 | Cn1nc(-c2csc3cnccc23)c(C(F)(F)F)c1C(=O)Nc1ccnc(C(F)(F)F)c1 [Compound I-1, 1-methyl-3-(thieno[2,3-c]pyridin-3-yl)-4-(trifluoromethyl)-N-(2-(trifluoromethyl)pyridin-4-yl)-1H-pyrazole-5-carboxamide] |
| 2500 to 10000 | Cn1cc2cccc(-c3nn(C)c(C(=O)Nc4ccnc(C(F)(F)F)c4)c3C(F)(F)F)c2n1 [Compound I-5] |
| < 500 | Cn1nc(-c2c[nH]c3ncccc23)c(C(F)(F)F)c1C(=O)Nc1ccnc(C(F)(F)F)c1 [Compound I-6] |
| 500 to 2500 | Cn1nc(-c2cccc3cccnc23)c(C(F)(F)F)c1C(=O)Nc1ccnc(C(F)(F)F)c1 [Compound I-7] |
| < 500 | Cn1nc(-c2cccc3ocnc23)c(C(F)(F)F)c1C(=O)Nc1ccnc(C(F)(F)F)c1 [Compound I-9] |
| 500 to 2500 | Cn1nc(-c2cccc3c2CC(=O)N3)c(C(F)(F)F)c1C(=O)Nc1ccnc(C(F)(F)F)c1 [Compound I-12] |
| 500 to 2500 | Cn1nc(-c2cccc3nccn23)c(C(F)(F)F)c1C(=O)Nc1ccnc(C(F)(F)F)c1 [Compound I-13] |
| > 10000 | Cn1nc(-c2cnc3cccnn23)c(C(F)(F)F)c1C(=O)Nc1ccnc(C(F)(F)F)c1 [Compound I-16] |
| 500 to 2500 | Cc1ccc(-c2nn(C)c(C(=O)Nc3ccnc(C(F)(F)F)c3)c2C(F)(F)F)c(Cl)c1 [Compound I-18] |
| 500 to 2500 | COc1cccc(OC)c1-c1nn(C)c(C(=O)Nc2ccnc(C(F)(F)F)c2)c1C(F)(F)F [Compound I-20] |
| 500 to 2500 | Cn1nc(-c2cccc3nccnc23)c(C(F)(F)F)c1C(=O)Nc1ccnc(C(F)(F)F)c1 [Compound I-21] |
| 500 to 2500 | Cn1nc(-c2cccc3c2NC(=O)C3)c(C(F)(F)F)c1C(=O)Nc1ccnc(C(F)(F)F)c1 [Compound I-23] |
| 2500 to 10000 | Cn1nc(-c2cccc3c2OCCCO3)c(C(F)(F)F)c1C(=O)Nc1ccnc(C(F)(F)F)c1 [Compound I-25] |
| > 10000 | Cn1nc(-c2cnn3c2OCCC3)c(C(F)(F)F)c1C(=O)Nc1ccnc(C(F)(F)F)c1 [Compound I-26] |
| 500 to 2500 | Cn1nc(-c2cccc3cnccc23)c(C(F)(F)F)c1C(=O)Nc1ccnc(C(F)(F)F)c1 [Compound I-27] |
| < 500 | Cn1nc(-c2cccc3ccoc23)c(C(F)(F)F)c1C(=O)Nc1cnc(-n2nccn2)c(C#N)c1 [Compound I-30] |
| < 500 | Cn1nc(-c2cccc3cnccc23)c(C(F)(F)F)c1C(=O)Nc1cnc(-n2nccn2)c(C#N)c1 [Compound I-31] |
| > 10000 | Cn1nc(/C=C/c2ccccc2)c(C(F)(F)F)c1C(=O)Nc1ccnc(C(F)(F)F)c1 [Compound I-32] |
| 500 to 2500 | Cn1nc(-c2ccccc2OC2COC2)c(C(F)(F)F)c1C(=O)Nc1cnc(-n2nccn2)c(C#N)c1 [Compound I-34] |
| < 500 | Cn1nc(-c2ccc(C#N)cc2Cl)c(C(F)(F)F)c1C(=O)Nc1cnc(-n2nccn2)c(Cl)c1 [Compound I-36] |
| > 10000 | Cn1nc(-c2ccc3cnccc3c2)c(C(F)(F)F)c1C(=O)Nc1ccnc(C(F)(F)F)c1 [Compound I-37] |
| 500 to 2500 | Cn1nc(-c2cccc3ncccc23)c(C(F)(F)F)c1C(=O)Nc1ccnc(C(F)(F)F)c1 [Compound I-39] |
| < 500 | Cn1nc(-c2ccc(C#N)cc2Cl)c(C(F)(F)F)c1C(=O)Nc1ccnc(C(F)(F)F)c1 [Compound I-41] |

More lines, now with the values behind:

| Structure (SMILES) | IC50 [nM] |
| --- | --- |
| Cn1nc([C@@H]2C[C@H]2c2ccccc2)c(C(F)(F)F)c1C(=O)Nc1ccnc(C(F)(F)F)c1 (racemic) [Compound I-40] | > 10000 |
| Cn1nc(-c2cccc3c2OCC(=O)N3)c(C(F)(F)F)c1C(=O)Nc1ccnc(C(F)(F)F)c1 [Compound I-2] | 2500 to 10000 |
| Cn1nc(-c2cccc3c2CCNC3=O)c(C(F)(F)F)c1C(=O)Nc1ccnc(C(F)(F)F)c1 [Compound I-3] | 2500 to 10000 |
| Cn1nc(-c2cccc3ncn(C)c23)c(C(F)(F)F)c1C(=O)Nc1ccnc(C(F)(F)F)c1 [Compound I-4] | < 500 |
| Cn1nc(-c2ccc(=O)n(C)c2)c(C(F)(F)F)c1C(=O)Nc1ccnc(C(F)(F)F)c1 [Compound I-8] | 2500 to 10000 |
| Cn1nc(-c2cccc3nc[nH]c23)c(C(F)(F)F)c1C(=O)Nc1ccnc(C(F)(F)F)c1 [Compound I-10] | 500 to 2500 |
| Cn1nc(-c2cccc3ncoc23)c(C(F)(F)F)c1C(=O)Nc1ccnc(C(F)(F)F)c1 [Compound I-11] | < 500 |
| Cn1nc(-c2ccnc3ccoc23)c(C(F)(F)F)c1C(=O)Nc1ccnc(C(F)(F)F)c1 [Compound I-14] | < 500 |
| Cn1nc(-c2cnc3ncccn23)c(C(F)(F)F)c1C(=O)Nc1ccnc(C(F)(F)F)c1 [Compound I-15] | > 10000 |
| COc1ccncc1-c1nn(C)c(C(=O)Nc2ccnc(C(F)(F)F)c2)c1C(F)(F)F [Compound I-19] | 500 to 2500 |
| Cn1nc(-c2ccc(C#N)c3ncccc23)c(C(F)(F)F)c1C(=O)Nc1ccnc(C(F)(F)F)c1 [Compound I-22] | 500 to 2500 |
| Cn1nc(-c2cccc3c(C#N)nccc23)c(C(F)(F)F)c1C(=O)Nc1ccnc(C(F)(F)F)c1 [Compound I-24] | 500 to 2500 |
| Cn1nc(-c2ccccc2OC2COC2)c(C(F)(F)F)c1C(=O)Nc1ccnc(C(F)(F)F)c1 [Compound I-28] | 2500 to 10000 |
| Cn1nc(-c2cccc3ccoc23)c(C(F)(F)F)c1C(=O)Nc1ccnc(C(F)(F)F)c1 [Compound I-29] | < 500 |
| Cn1nc(-c2cccc3c2OCO3)c(C(F)(F)F)c1C(=O)Nc1ccnc(C(F)(F)F)c1 [Compound I-33] | < 500 |
| Cn1nc(-c2ccc(C#N)cc2Cl)c(C(F)(F)F)c1C(=O)Nc1cnc(-n2nccn2)c(C#N)c1 [Compound I-35] | < 500 |
| Cn1nc(-c2cccc3ncccc23)c(C(F)(F)F)c1C(=O)Nc1cnc(-n2nccn2)c(C#N)c1 [Compound I-38] | 500 to 2500 |
| Cn1nc(-c2cncc3sccc23)c(C(F)(F)F)c1C(=O)Nc1ccnc(C(F)(F)F)c1 [Compound I-42, 1-methyl-3-(thieno[2,3-c]pyridin-4-yl)-4-(trifluoromethyl)-N-(2-(trifluoromethyl)pyridin-4-yl)-1H-pyrazole-5-carboxamide] | < 500 |
